Measured values published in patent US10974081B2, “Treatment and prevention of sleep disorders” (Purdue Pharma L.P., priority 2016, dated 2021).
Values after ≈ are worked out from the molar mass of the structure shown. Read-outs that look alike come from different tables or passages of the source.

How the values were obtained:
rat liver microsomes = assay: In vitro metabolic stability, rat liver microsomes; type: in vitro ADME; settings: 2 μM, % remaining after 30 minutes at 37° C.
Description: (§1) The comparative in vitro metabolic stabilities of Compounds (1F), […], and W-212393 were determined upon exposure to human liver microsomes or rat liver microsomes according to a procedure disclosed in, e.g., Example 14 of U.S. Pat. No. 9,290,488, which is hereby incorporated by reference in its entirety. Liver microsomes from Crj;CD rats or humans were incubated with 2 μM of each tested compound; thereafter, the supernatant was analyzed by HPLC-MS for the concentration of the tested compound present. Human liver microsomes, pooled, 20 mg/mL, were obtained from […] #H0610). […] Alternatively and if desired, rat liver microsomes can be obtained commercially from, e.g., XenoTech (Sprague-Dawley rat liver microsomes, pooled, 20 mg/mL, cat #R1000). β-NADPH (β-nicotinamide adenine dinucleotide 2'-phosphate reduced tetrasodium salt hydrate) was obtained from Oriental Yeast Co., Ltd. (Tokyo, Japan). Each tested compound, present at an initial concentration of 2 μM, was incubated at 37° C. in the presence of 0.5 mg/mL of either human microsomes or rat microsomes in suspension in 50 mM Tris-HCl buffer (7.4 pH), 150 mM KCl, 10 mM MgCl2, and 1 mM β-NADPH. Incubation was initiated upon the addition of a 100-fold concentrated solution of the tested compound to one of the microsome preparations. Incubation was terminated by addition of a two-fold volume of a 1/1 mixture of acetonitrile/methanol after either 0 minutes or 30 minutes of incubation at 37° C. Thereafter, proteins and other macromolecules from the microsome preparation were removed by centrifugation. All incubations were conducted in duplicate. […] The HPLC system consisted of a Waters 2795 separations module (Waters Corp., Milford, Mass.) equipped with an inline degasser, temperature controlled auto-sampler, and column oven. The analytical column was a Waters […], 2.1 mm×20 mm column. The mass analyzer was a Waters ZQ, single quadrupole mass spectrometer equipped with an electrospray ionization source operating in the positive ionization mode and utilizing a stainless steel spray capillary. […]

[1] = Aqueous solubility at pH about 6.8; type: physicochemical; settings: 25 °C, pH 6.8, aqueous buffer, kinetic from dmso stock
[2] = In vivo bioavailability after oral dosing; settings: male, Sprague-Dawley [Crl:CD(SD)], rat, plasma; 1 mg/kg oral, non-fasted; mean of multiple determinations
[3] = Rat protein binding, equilibrium dialysis of rat plasma; type: in vitro ADME; settings: rat, rat plasma, 2 μg/mL, 24 hours dialysis at 37° C.
Description: (§2) The extent of in vitro binding of Compound (1F), […], or W-212393 to rat plasma was determined as an assessment of the protein binding of each compound, i.e., compound unavailable for modulating receptor activity. Plasma from rats containing a tested compound in one chamber of a dialysis cell was dialyzed with PBS in the other chamber; thereafter, the supernatant from each chamber was analyzed for the concentration of the tested compound present. A cell suitable for equilibrium dialysis was used in the determinations. The dialysis membrane described in Example 10 (with molecular mass cutoff of 12,000-14,000 Da) separated the dialysis cell into two chambers. The membrane was soaked with purified water and PBS before being placed into the dialysis cell. 4 μL of an iv formulation of each tested compound was added to 996 μL of rat plasma, the latter obtained using syringe containing heparin and EDTA by the procedure described in Example 10, to provide a plasma sample with a tested compound concentration of 2 μg/mL. 450 μL of the plasma sample was applied to one chamber (plasma chamber) of the dialysis cell. A 450 μL aliquot of PBS was applied to the other chamber (PBS chamber) of the dialysis cell. The dialysis study was conducted in duplicate for each tested compound. After 24 hours of equilibrium dialysis at 37° C., 30 μL of liquid from the plasma chamber of the dialysis cell was collected and to this was added 270 μL of fresh PBS (this combination was designated Sample “1”). Then, 270 μL of liquid from the PBS chamber of the dialysis cell was collected and to this was added 30 μL of control rat plasma (i.e., rat plasma never exposed to any test compound, this combination was designated Sample “2”). Thereafter, each sample was mixed well and stored in a freezer until the next analysis step. After the protein precipitated in the freezer, each supernatant thusly obtained was analyzed by LC-MS-MS for unbound test compound. […] Thereafter, the percentage of rat protein-bound (“RPB”) tested compound was calculated as follows: […]

in vivo = settings: male, Crl, CD(SD), rat, brain homogenate and plasma, intravenous, 0.5 mg/kg
human liver microsomes = assay: In vitro metabolic stability, human liver microsomes; type: in vitro ADME; settings: 2 μM, % remaining after 30 minutes at 37° C.
Description: as §1

[4] = In vivo functional observational battery (FOB); settings: male, Crl:CD(SD), rat, in vivo, po
rats [5] = assay: In vivo functional observational battery (FOB); settings: for Increased touch response: 10 mg/kg
ORL-1 receptor = ORL-1 receptor (Homo sapiens, UniProt P41146); assay: Functional [^35S]GTPγS binding assay, ORL-1; type: biochemical; settings: from ORL-1 Emax results in Table 21
mu-opioid receptor = mu-opioid receptor (Homo sapiens, UniProt P35372); settings: determined in Example 18 of U.S. Pat. No. 8,476,271; cited from earlier work
rat plasma = assay: Rat protein binding, equilibrium dialysis of rat plasma; type: in vitro ADME
Description: as §2

[6] = Free unbound compound fraction, equilibrium dialysis of rat serum; type: in vitro ADME; settings: male, Crl:CD (SD), rat, rat serum; 2 μg/mL, 24 hours dialysis at 37° C.
Description: (§3) The extent of in vitro binding of Compound (1F) or W-212393 to rat serum was determined as an assessment of the availability of free unbound compound for modulating receptor activity according to a procedure disclosed in, e.g., Example 15 of U.S. Pat. No. 9,290,488, which is hereby incorporated by reference in its entirety. Serum from rats containing a tested compound in one chamber of a dialysis cell was dialyzed with phosphate buffered saline (“PBS”) in the other chamber; thereafter, the supernatant from each chamber was analyzed for the concentration of the tested compound present. […] The final concentration of each tested compound in the serum sample was adjusted to 2 μg/mL by adding an appropriate volume of PBS. A cell suitable for equilibrium dialysis was used in the determinations. A SPECTRA/POR dialysis membrane (with molecular mass cutoff of 12,000-14,000 Da, Spectrum Laboratories, Inc., Rancho Dominguez, Calif.) separated the dialysis cell into two chambers. A 500 μL aliquot of the serum sample containing a tested compound was applied to one chamber (serum chamber) of the dialysis cell. A 500 μL aliquot of PBS was applied to the other chamber (PBS chamber) of the dialysis cell. The dialysis study was conducted in duplicate for each tested compound. After 24 hours of equilibrium dialysis at 37° C., 30 μL of liquid from the serum chamber of the dialysis cell was collected and to this was added 270 μL of fresh PBS (this combination was designated Sample “A”). Then, 270 μL of liquid from the PBS chamber of the dialysis cell was collected and to this was added 30 μL of control rat serum (i.e., rat serum never exposed to any test compound, this combination was designated Sample “B”). […] Each supernatant was analyzed by LC-MS-MS. […] Thereafter, the percentage of free unbound tested compound was calculated from the ratio of the tested compound amount determined from Sample B divided by the sum of the tested compound amounts determined from Sample A and Sample B.

rat serum = assay: as above; type: in vitro ADME; settings: average of multiple determinations
Description: as §3

chronic insomniacs = settings: 10 mg zolpidem, PSG in chronic insomniacs; cited from earlier work
rats [7] = assay: EEG/EMG sleep-wake analysis, single administration compared to zolpidem; type: in vivo, rat
[8] = 50 mM phosphate buffer, second procedure (50 mM phosphate buffer, HPLC), read-out: Solubility at pH 6.8
[9] = first procedure (JP2 solution, LC-MS), read-out: Solubility at pH 6.8
[10] = 30 mg/kg, 1 h after administration
[11] = 30 mg/kg, 2 h after administration
[12] = 30 mg/kg, 4 h after administration
[13] = 30 mg/kg, 6 h after administration
[14] = 30 mg/kg, 8 h after administration
[15] = 30 mg/kg, 24 h after administration
[16] = 300 mg/kg, 1 h after administration
[17] = 300 mg/kg, 2 h after administration
[18] = 300 mg/kg, 4 h after administration
[19] = 300 mg/kg, 6 h after administration
[20] = 300 mg/kg, 8 h after administration
[21] = 300 mg/kg, 24 h after administration

Chain of mu-opioid receptor (P35372 whole entry): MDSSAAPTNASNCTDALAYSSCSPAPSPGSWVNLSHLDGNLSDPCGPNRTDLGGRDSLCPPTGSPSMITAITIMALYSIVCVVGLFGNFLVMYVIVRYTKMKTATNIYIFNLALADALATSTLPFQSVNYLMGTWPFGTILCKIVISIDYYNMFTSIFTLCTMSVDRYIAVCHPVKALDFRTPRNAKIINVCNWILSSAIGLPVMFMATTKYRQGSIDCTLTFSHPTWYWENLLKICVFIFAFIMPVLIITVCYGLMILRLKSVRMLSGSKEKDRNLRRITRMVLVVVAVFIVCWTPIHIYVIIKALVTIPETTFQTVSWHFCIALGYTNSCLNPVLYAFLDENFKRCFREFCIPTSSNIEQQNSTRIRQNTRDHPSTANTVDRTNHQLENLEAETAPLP
Chain of ORL-1 receptor (P41146 whole entry): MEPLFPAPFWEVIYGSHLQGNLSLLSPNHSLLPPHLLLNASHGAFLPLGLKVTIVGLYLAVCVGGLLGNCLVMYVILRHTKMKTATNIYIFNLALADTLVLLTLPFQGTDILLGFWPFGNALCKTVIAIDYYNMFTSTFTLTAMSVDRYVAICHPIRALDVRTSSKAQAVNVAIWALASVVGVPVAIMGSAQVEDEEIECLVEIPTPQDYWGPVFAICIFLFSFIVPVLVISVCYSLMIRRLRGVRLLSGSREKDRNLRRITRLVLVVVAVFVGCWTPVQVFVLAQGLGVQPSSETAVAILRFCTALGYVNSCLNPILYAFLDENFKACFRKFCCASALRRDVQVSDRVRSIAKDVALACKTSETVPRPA

## C[C@@H]1C[C@@H]2C[C@H](C1)C[C@@H](N1[C@@H]3CCC[C@H]1C[C@@H](n1c(=O)c(C(=O)O)nc4ccccc41)C3)C2 [Compound 405K]
Rat liver microsomes
  Rat Metabolic Stability (%): 96.9%
[1]; [8]
  solubility at 16 h: 5 µM (≈ 2.25 µg/mL)
[1]; [9]
  solubility at 16 h: 8 µM (≈ 3.6 µg/mL)
[1]; pH of about 6.8, average of two determinations, read-out: aqueous solubility, average
  solubility at 16 h: ~6.5 µM (≈ 2.92 µg/mL)
[2]
  bioavailability: 63.7%
[3]
  fraction unbound at 24 h, 2 μg/mL: ~0.14
In vivo
  Kp at 30 min: 0
Human liver microsomes
  Human Metabolic Stability (%): 95.1%

## C[C@@H]1C[C@@H]2C[C@H](C1)C[C@@H](N1[C@@H]3CCC[C@H]1C[C@@H](n1c(=O)c(C(=O)O)nc4ccccc41)C3)C2 [Compound 405]
[4]
  NOAEL: 10 mg/kg
Rats [5]; 1 h after administration
  Increased touch response: 1 of 6
Rats [5]; 2 h after administration
  Increased touch response: N
Rats [5]; 4 h after administration
  Increased touch response: N
Rats [5]; 6 h after administration
  Increased touch response: N
Rats [5]; 8 h after administration
  Increased touch response: N
Rats [5]; 24 h after administration
  Increased touch response: N
Rats [5]; [10]
  Biting behavior: N
  Jumping: N
Rats [5]; [11]
  Biting behavior: N
  Jumping: N
Rats [5]; [12]
  Biting behavior: N
  Jumping: N
Rats [5]; [13]
  Biting behavior: 3 of 6
  Jumping: 1 of 6
Rats [5]; [14]
  Biting behavior: N
  Jumping: N
Rats [5]; [15]
  Biting behavior: N
  Jumping: N
Rats [5]; 100 mg/kg, 1 h after administration
  Biting behavior: N
Rats [5]; 100 mg/kg, 2 h after administration
  Biting behavior: N
Rats [5]; 100 mg/kg, 4 h after administration
  Biting behavior: N
Rats [5]; 100 mg/kg, 6 h after administration
  Biting behavior: 1 of 6
Rats [5]; 100 mg/kg, 8 h after administration
  Biting behavior: 1 of 6
Rats [5]; 100 mg/kg, 24 h after administration
  Biting behavior: N
Rats [5]; [16]
  Biting behavior: N
  Jumping: N
Rats [5]; [17]
  Biting behavior: N
  Jumping: N
Rats [5]; [18]
  Biting behavior: N
  Jumping: N
Rats [5]; [19]
  Biting behavior: 2 of 6
  Jumping: 1 of 6
Rats [5]; [20]
  Biting behavior: 1 of 6
  Jumping: 2 of 6
Rats [5]; [21]
  Biting behavior: N
  Jumping: N

## O=C(O)c1nc2ccccc2n([C@H]2C[C@H]3CCC[C@@H](C2)N3C2CC3CCCC(C3)C2)c1=O (stereo partly shown) [Compound (1C)]
ORL-1 receptor
  agonist classification at ORL-1 from Emax: partial agonists
mu-opioid receptor
  GTPγS Mu Emax: 0%

## O=C(O)c1nc2ccccc2n([C@H]2C[C@H]3CCC[C@@H](C2)N3C2CC3CCCC(C3)C2)c1=O (stereo partly shown) [Compound (1F)]
Rat liver microsomes
  Rat Metabolic Stability (%): 95.3%
[1]; [8]
  solubility at 16 h: 35 µM (≈ 15.2 µg/mL)
[1]; [9]
  solubility at 16 h: > 50 µM
[1]; pH of about 6.8, over both determinations, read-out: aqueous solubility
  solubility at 16 h: ≥ 35 µM
Rat plasma; 2 μg/mL, 24 hours dialysis at 37° C.
  Rat Protein Binding (%): 53.0%
Rat plasma; average of multiple determinations
  bound compound fraction, average: 52%
[3]
  fraction unbound at 24 h, 2 μg/mL: 0.491
[6]
  fraction unbound at 24 h, 2 μg/mL: 0.65 to 0.7
Rat serum
  free unbound compound fraction, average: 67.5%
Human liver microsomes
  Human Metabolic Stability (%): 98.7%

## Cc1ccc(-c2nc3ccc(C)cn3c2CC(=O)N(C)C)cc1 [zolpidem, reference compound]
Chronic insomniacs
  Mean percent SE higher than placebo group: 7%
Rats [7]; single zolpidem dose of 10 mg/kg oral
  overall sleep effect: sleep-enhancing effect
Rats [7]; zolpidem 10 mg/kg oral (FIG. 17B, 18B)
  effect on percentage of time spent in REM sleep: no significant effects
Rats [7]; zolpidem 10 mg/kg oral, 3 hour block 0-3 hours after dosing (FIG. 18C)
  NREM sleep versus vehicle: significant increase
Rats [7]; zolpidem 10 mg/kg oral, 3 hour blocks, 0-12 hours after administration (FIG. 18A)
  wakefulness versus vehicle: decreased tendency
Rats [7]; zolpidem 10 mg/kg oral, at 1 hour after dosing (FIG. 17A)
  percentage of time spent in wakefulness: about 46%
Rats [7]; zolpidem 10 mg/kg oral, at 1 hour after dosing (FIG. 17C)
  percentage of time spent in NREM sleep: about 53%
Rats [7]; zolpidem 10 mg/kg oral, at 10 hours after dosing (FIG. 17A)
  percentage of time spent in wakefulness: ~43%
Rats [7]; zolpidem 10 mg/kg oral, at 15 hours after dosing (FIG. 17C)
  percentage of time spent in NREM sleep: ~30%
Rats [7]; zolpidem 10 mg/kg oral, at 15 hours after dosing, lights-on period (FIG. 17A)
  percentage of time spent in wakefulness: about 69%
